Results as given in ChEMBL document CHEMBL3507680, “University of Dundee, Gates Library screen for HepG2 cell viability”.

Test: Human HepG2 cell viability assay in 384 well format
Format: toxicity, cell-based
Design: dose 125 nL, time 70.5 hour; concentration not given beside the values
Details: HepG2 cells, read-out: Inhibition

Row | SMILES | cytotoxicity at 70.5 h [%]
1 | CCC1(C)Cc2ccccc2-c2nc(NCCO)nc(O)c21 (stereo unspecified) | -26.4
2 | O=c1[nH]c(NCCCO)nc2c1C1(CCCC1)Cc1ccccc1-2 | -23.5
3 | O=c1[nH]c(NCCO)nc2c1C1(CCCC1)Cc1ccccc1-2 | 18.4
4 | COC[C@]12COC[C@H]1CN(S(=O)(=O)c1cccnc1)C2 | -13
5 | CC(C)N1CCN(C)C2(CCN(C(=O)c3ccnnc3)CC2)C1=O | -4.95
6 | CS(=O)(=O)N1CCCC12CCCN(c1nccs1)C2 (stereo unspecified) | -3.55
7 | CC(C)C(=O)N1CC[C@@H]2CN(Cc3ccncc3)S(=O)(=O)[C@@H]2CC1 | -3.99
8 | O=C(c1cc[nH]n1)N1CC[C@@H]2CN(Cc3cccnc3)S(=O)(=O)[C@@H]2CC1 | -1.58
9 | CCc1cnc(N2CC[C@@H]3CN(C(=O)c4ccco4)CCO[C@@H]3C2)nc1 | -10.8
10 | CN(C)CCNC(=O)c1noc2c1CN(C(=O)N(C)C)CC2 | -6.62
11 | O=C(c1ccnnc1)N1CCC2(CCN(c3ccsc3)C2=O)C1 (stereo unspecified) | -0.84
12 | CO[C@@H]1CC[C@H]2[C@H]1OCCN2C(=O)c1ccco1 | -1.75
13 | Cn1nc(C#N)c2c1CN(C(=O)c1ccnnc1)CCC2 | 0.526
14 | Cc1nc(CN2CCO[C@H]3CN(C(=O)Cc4cccs4)C[C@H]32)cs1 | -3.66
15 | O=C1NCC[C@]12CN(Cc1ccsc1)C[C@H]2c1ccccc1 | -4.93
16 | CCO[C@@H]1CC[C@H]2[C@H]1OCCN2C(=O)c1ccc(C)o1 | -4.6
17 | Cc1ccc(CC(=O)N2CCn3cc(Cn4cncn4)nc3C2)cc1 | -7.66
18 | CO[C@H]1CC[C@H]2[C@H]1OCCN2C(=O)c1ccc(C)nc1 | -2.48
19 | Cc1ccc(C(=O)N2C[C@@H]3COC[C@]3(COCc3cccnc3)C2)cn1 | -6.21
20 | Cc1nc(C(=O)N2C[C@@H]3COC[C@]3(COCc3cccnc3)C2)cs1 | -6.56
21 | CCn1c(SCC(=O)N2CCOCC2)nc2cc(C)[nH]c2c1=O | 0.779
22 | Cc1cc2nc(SCC(=O)N3CCCCC3)n(C)c(=O)c2[nH]1 | 19.2
23 | Cc1cc2nc(SCC(=O)N3CCOCC3)n(C(C)C)c(=O)c2[nH]1 | -5.42

Row | SMILES | cytotoxicity at 70.5 h [%]
24 | COc1ccc(N2CCN(CC(O)c3cc(C)ccc3C)CC2)cc1 (stereo unspecified) | -14.7
25 | OCCCNc1nc(O)c2c(n1)-c1ccccc1CC21CCCCC1 | -9.73
26 | COc1ccccc1CCNC(=O)CC1(Cn2cnnn2)CCCCC1 | -20.4
27 | CC(C)c1ccc(NC(=O)Cn2cc(I)cn2)cc1 | -24.1
28 | CC(C)CNC(=O)CC1(Cn2cnnn2)CCCCC1 | -12.5
29 | COc1cccc2c1ccn2CC(=O)N1CCCC(C(=O)O)C1 (stereo unspecified) | 21.4
30 | COc1ccc(C(=O)COc2coc(CN3CCCCC3)cc2=O)cc1 | -5.06
31 | COc1cccc(C(=O)Oc2cc(=O)n3cccc(C)c3n2)c1 | -24.8
32 | CCCOc1ccc(C(=O)Oc2cc(=O)n3cccc(C)c3n2)cc1 | -0.525
33 | Cc1ccc(C(=O)Oc2cc(=O)n3cccc(C)c3n2)cc1 | 15.3
34 | Cc1cccn2c(=O)cc(OC(=O)c3ccc(OC(C)C)cc3)nc12 | -14.3
35 | COCCNC(=O)Cn1c(-c2ccc(Cl)cc2)nc(C)c(CCO)c1=O | 3.28
36 | CC/N=c1\nc(NCC)nc2n1C(O)(Nc1ccc(C)cc1C)CS2 (stereo unspecified) | 4.88
37 | CCOc1cccc2c1OCC(=O)N(c1ccc3c(c1)OCO3)C2 | 14.7
38 | CCOc1cccc2c1OCC(=O)N(c1ccc3c(c1)OCCO3)C2 | -6.5
39 | O=c1[nH]nc2c(S(=O)(=O)N3CCOCC3)cccn12 | -9.51
40 | Cn1ccc2c(cnc3nc(-c4ccncc4)nn32)c1=O | -7.69
41 | Cc1nc2ncc3c(=O)n(C)ccc3n2n1 | -8.63
42 | CCc1nnc2sc(-c3cc(C(C)C)n[nH]3)nn12 | -1.02
43 | CC1CCC2(CC1)Nc1ccccc1CO2 (stereo unspecified) | 15.1
44 | COC(=O)C1CCN(C(=O)c2cc(Br)ccc2-n2cnnn2)CC1 | -1.5
45 | CN1CCCN(Cn2nc(-c3ccccc3F)ccc2=O)CC1 | -5.91
46 | Cc1ccccc1CS(=O)(=O)c1nnc(C(C)NC(=O)OC(C)(C)C)o1 (stereo unspecified) | 26.9

Row | SMILES | cytotoxicity at 70.5 h [%]
47 | CC(NC(=O)OC(C)(C)C)c1nnc(S(=O)(=O)Cc2ccccc2Cl)o1 (stereo unspecified) | -4.85
48 | CC(=O)c1ccc(NC(=O)N[C@H](C(=O)O)C(C)C)cc1 | -6.92
49 | CCOC(=O)C1CCN(C(=O)c2cc(Br)ccc2-n2cnnn2)CC1 | -6.49
50 | O=C(Cc1ccc2c(c1)OCC2)Nc1nc[nH]n1 | -8.03
51 | O=C(Cc1ccc2c(c1)OCC2)Nc1nn[nH]n1 | -8.8
52 | CC(NC(=O)OC(C)(C)C)c1nnc(S(=O)(=O)Cc2ccc(Cl)cc2)o1 (stereo unspecified) | 4.02
53 | CC(CC(=O)O)CC(=O)Nc1sc2c(c1C(N)=O)CCc1ccccc1-2 (stereo unspecified) | 19.3
54 | NC(=O)c1c(NC(=O)C2CCCO2)sc2c1CCc1ccccc1-2 (stereo unspecified) | -3.81
55 | Cc1cccc(CSc2ncc(Br)c(C(=O)O)n2)c1 | -8.53
56 | Cc1ccc(CSc2ncc(Br)c(C(=O)O)n2)cc1 | 0.214
57 | CCOc1cc(CNCCCn2ccnc2)cc(Cl)c1OC | 3.61
58 | CCOc1c(Cl)cc(Cl)cc1CNCCCn1ccnc1 | -10.4
59 | Cc1nc(Nc2ccc(Cl)cn2)sc1C(=O)NC(C)C | 7.41
60 | Cc1c(C(=O)O)nnn1Cc1cccc(C(F)(F)F)c1 | -12.7
61 | O=C(COCc1nc(-c2ccncc2)no1)N1CCOCC1 | -0.64
62 | CCN1CCN(C(=O)COCc2nc(-c3ccncc3)no2)CC1 | -1.19
63 | Cc1cc(O)n(-c2ccc3nnc(C)n3n2)n1 | -19.5
64 | O=C(O)c1cnc(N2CCCC2)nc1COc1ccccc1 | -2.71
65 | Cc1nc(N2CCCC2)ncc1-c1cc(O)n2ncnc2n1 | -2.97
66 | COCCNc1cc(C(=O)N2CCOCC2)nc(C)n1 | 0.483
67 | CCn1nc(C)c2nnn(CC(=O)Nc3cccc(C)c3)c(=O)c21 | -10.1
68 | Cc1nc(NCCc2ccccc2)cc(C(=O)N2CCCCC2)n1 | -0.559
69 | COc1ccc(OCCc2nnc(NC(C)=O)s2)cc1 | -4.39

Row | SMILES | cytotoxicity at 70.5 h [%]
70 | Cc1nc(NCc2ccc(F)cc2)cc(C(=O)N2CCOCC2)n1 | -3.46
71 | Cc1c(Cc2ccccc2)c(O)nc2nc(N3CCOCC3)nn12 | -8.68
72 | Cc1cccc(NC(=O)CN2C(=O)CC(C)(C)c3ccccc32)n1 | -8.87
73 | CC1(C)CC(=O)N(CC(=O)Nc2ccon2)c2ccccc21 | -6.95
74 | O=C(Nc1cc(-c2ccncc2)no1)C1CCCCC1 | -6.08
75 | CCn1nc(C)c(NC(=O)c2nnn(Cc3ccccc3)c2OC)c1C | -5.09
76 | O=C(Nc1cc(-c2cccnc2)no1)C1CCC1 | -13
77 | O=C(Nc1cc(-c2ccccn2)no1)C1CC1 | 11.7
78 | CCCNC(=O)c1cc(C(C)C)nc(N2CCCCC2)n1 | 3.03
79 | CC(C)c1cc(C(=O)NCCN2CCOCC2)nc(N2CCCC2)n1 | -3.85
80 | Cc1ccnc(NC(=O)c2cccc(OCc3nnnn3C)c2)c1 | -17.9
81 | Cc1ccc(NC(=O)c2cccc(OCc3nnnn3C)c2)nc1 | -9.18
82 | COCCCNc1c(C#N)c2c(c3nncn13)CN(C)CC2 | -28.4
83 | CCOc1ccc(Br)cc1C1CCCCN1 (stereo unspecified) | -12.6
84 | CCOC(=O)CSc1nnc(C(N)CC(C)C)o1 (stereo unspecified) | -7.86
85 | CC(C)NC(=O)N1CCc2onc(C(=O)NCCN(C)C)c2C1 | -2.85
86 | CC(C)C(=O)N1CCc2onc(C(=O)NCCN(C)C)c2C1 | -5.11
87 | O=C(c1cc[nH]n1)N1CC[C@@H]2CN(Cc3ccncc3)S(=O)(=O)[C@@H]2CC1 | -5.13
88 | COc1cc(N2C[C@@H]3COC[C@]3(C(=O)NC3CC(F)(F)C3)C2)ncn1 | -4.63
89 | CNC(=O)c1cc2c(nc1N(C)C)CCN(S(=O)(=O)N(C)C)CC2 | 4.98
90 | COc1ccc2c(c1)C1(CCN(Cc3cnn(C)c3)CC1)N(C)CC2 | -0.704
91 | COCC1CC2(CCN(C(=O)c3ccc(C)nc3)CC2)CO1 (stereo unspecified) | -5.4
92 | Cc1noc([C@@H]2C[C@@H]3CCN(CC4CCOCC4)C[C@H]3O2)n1 | -4.62

Row | SMILES | cytotoxicity at 70.5 h [%]
93 | Cc1ccc(N2CC3(COCCN(Cc4cnn(C)c4)C3)OCC2=O)s1 (stereo unspecified) | 0.295
94 | Fc1cnc(N2CCC3(CC2)CC(OCc2cccnc2)CO3)nc1 (stereo unspecified) | -0.216
95 | Cc1cnc(N2CCC3(CC2)CC3CN(C)Cc2cccnc2)nc1 (stereo unspecified) | 2.52
96 | c1csc(CN2CCC3(CC2)CCN(CC2CCOCC2)C3)n1 | 0.161
97 | Cc1nc(CN2C[C@@H]3CCCO[C@@H]3[C@H](N(C)C(C)C)C2)cs1 | -1.04
98 | COCCN1C(=O)CC[C@]12CC[C@@H](NCc1cccnc1OC)CC2 | -2.58
99 | c1csc(CN2CCC3(COCCN(CC4CC4)C3)C2)n1 (stereo unspecified) | -3.37
100 | O=C(c1ccncc1)N1CC[C@@H]2[C@@H](CC1)OCCN2c1cccnc1 | -7.36
101 | CO[C@H]1CCN(c2ncc(F)cn2)[C@@H]2CN(Cc3ccco3)C[C@H]12 | -6.95
102 | CN1C[C@@H]2CN(Cc3ccsc3)CCC[C@]2(C(=O)O)C1 | -2.55
103 | CCOC(=O)[C@]12CCCN(Cc3ccsc3)C[C@H]1CN(CCOC)C2 | -5.12
104 | CNC(=O)c1cc2c(nc1N(C)C)CCN(C)CC2 | -2.14
105 | O=S(=O)(NCC1OCCc2cn(Cc3ccccn3)nc21)C1CC1 (stereo unspecified) | -0.93
106 | CCOC(=O)[C@]12CCCN(Cc3nccs3)C[C@H]1CN(CC(C)C)C2 | -3.1
107 | CN(Cc1cccnc1)CC1CC12CCN(c1nncs1)CC2 (stereo unspecified) | -12.3
108 | c1ccc(Cn2cc3c(n2)C(CNCC2CCOCC2)OCC3)nc1 (stereo unspecified) | -1.54
109 | COc1ncccc1CN1CC[C@H]2[C@H]1CCN2CCN(C)C | -1.63
110 | CCOc1ccc(Br)cc1C1CCCN1 (stereo unspecified) | 18.6
111 | Cc1ccc(C(=O)CN(C2=NCCCCC2)c2ccccc2)cc1 | -23.6
